Molecules are shown by their SMILES.

In series [1] the test system is gamma-H2AX. In words: Gamma-H2AX measurement of DNA damage by flow cytometry. It is filed as cell-based. As to conditions: 100 μM leflunomide 48 h or A771726. As for the experimental part:
(§1) FIG. 4A is a graph showing positively-stained cells labeled with a gamma-H2AX antibody; cells were analyzed by flow cytometry (Student's t-test, *p<0.05, n=3). […] The mean fluorescence intensity (MFI) was determined using flow cytometry (Student's t-test, *p<0.01, n=3). FIG. 4C is a series of representative photographs showing MEFs treated with 150 μM A771726 for 24 h and labeled with EdU and gamma-H2AX. Left: representative confocal microscopy images. Right: quantified EdU and gamma-H2AX colocalized foci (Student's t-test, *p<0.05, n=3). […] Left: representative confocal microscopy images. Right: quantification of the number of foci per cell (Student's t-test, p>0.05, n=6). FIG. 4E is a graph showing the percentage of cells treated with 150 μM A771726 for times indicated and labeled with antibodies to RPA and gamma-H2AX positively staining for RPA alone or both RPA and gamma-H2AX; cells were analyzed by flow cytometry (Student's t-test, *p<0.05, n=4). […] FIGS. 4G and 4H are graphs quantifying the number of chromosomal breaks and multiradial formations per haploid genome (Student's t-test, *p-values on figure, cells scored/replicate>100). […]
(§2) FIG. 10D is a bar graph showing a quantitative depiction of the percent cell area with EdU-staining from images in FIG. 4D, used to normalize foci to cell size (Student's t-test, p>0.05, not significant, n=6). […]
For orientation: In flow cytometry, cells or beads pass a laser one at a time.

Series [2] relates to MCCL-357 and MCCL-278 cells. The series can be described thus: Karyotyping (chromosomal analysis). In kind it is cell-based, mouse. To be noted: A771726, by 48 h; MCCL-357 compared to MCCL-278. As for the experimental part:
as §1, §2

In series [3] the test system is Pten^−/− and WT MEFs. The series can be described thus: Drug response assay (GI50 dose titration) in Pten WT and KO MEFs. In kind it is cell-based, mouse. To be noted: GI50 dose titration (FIG. 2A). Here is the method:
FIG. 2F is a graph comparing various human breast cancer cell line growth rates. FIG. 2G is a series of immunoblots of pAKT in nuclear fractions of Pten^−/− and Pik3ca mutant MEFs. […] Data shown as mean+SD.
1500 cells per well (mouse cells) or 3000 cells per well (human cells) were plated in 96-well plates (Corning 720089). Growth rates were determined using the phase-confluency readings on an IncuCyte ZOOM (Essen Biosciences) on live cells over time.
Cells were plated in 96-well plates at a density of 1500 or 3000 cells per well. […] Sensitivity was determined by a dose-response titration for each cell line, with an equivalent amount of DMSO in each well. For cell death assays, DRAQ7™ (Cell Signaling 7406S) was added to the media at a 1:200 dilution and red fluorescence was measured in addition to phase in live-cell imaging to measure accumulation of dead cells. An IncuCyte ZOOM was used.

Series [4] relates to MCCL-357 and MCCL-278 cells. The series can be described thus: RPA and gamma-H2AX co-staining by flow cytometry. In kind it is cell-based, mouse. Here is the method: as §1
FIG. 10D is a bar graph showing a quantitative depiction of the percent cell area with EdU-staining from images in FIG. 4D, used to normalize foci to cell size (Student's t-test, p>0.05, not significant, n=6). […] Cells were treated with A771726 for times indicated and co-stained with antibodies to RPA and gamma-H2AX; cells were analyzed by flow cytometry (n=4). […] FIG. 10H is a bar graph showing a quantitative depiction of the percent of abnormal […] in MCCL-278 and MCCL-357 breast cells treated with 50 or 100 μM A771726 or vehicle (Student's t-test, *p<0.01). […] Pulverized chromosomes could not be quantified due to the very high number of fragments.
The FlowCellect™ Cell Cycle Checkpoint H2A.X DNA Damage Kit (Millipore FCCH12542) was used according to the instructions provided in the kit. […] (Propidium iodide was not used in this setting.) Fluorescence was measured on a Guava® flow cytometer.

Series [5] concerns ATR phosphorylation of CHK1 at serine 345. The series can be described thus: Immunoblot of pChk1. In kind it is cell-based. To be noted: 150 μM A771726; Pten WT versus Pten^−/− cells. On the technique in general: A western blot detects proteins with antibodies after separation by electrophoresis.
The target of series [6] is T1, CYP2C8 (Homo sapiens, UniProt P10632).
T1 construct: host or cells: human subjects, in vivo
As to conditions: repeated doses of teriflunomide, single dose of 0.25 mg repaglinide; cited from earlier work.

T1 sequence (P10632 whole entry): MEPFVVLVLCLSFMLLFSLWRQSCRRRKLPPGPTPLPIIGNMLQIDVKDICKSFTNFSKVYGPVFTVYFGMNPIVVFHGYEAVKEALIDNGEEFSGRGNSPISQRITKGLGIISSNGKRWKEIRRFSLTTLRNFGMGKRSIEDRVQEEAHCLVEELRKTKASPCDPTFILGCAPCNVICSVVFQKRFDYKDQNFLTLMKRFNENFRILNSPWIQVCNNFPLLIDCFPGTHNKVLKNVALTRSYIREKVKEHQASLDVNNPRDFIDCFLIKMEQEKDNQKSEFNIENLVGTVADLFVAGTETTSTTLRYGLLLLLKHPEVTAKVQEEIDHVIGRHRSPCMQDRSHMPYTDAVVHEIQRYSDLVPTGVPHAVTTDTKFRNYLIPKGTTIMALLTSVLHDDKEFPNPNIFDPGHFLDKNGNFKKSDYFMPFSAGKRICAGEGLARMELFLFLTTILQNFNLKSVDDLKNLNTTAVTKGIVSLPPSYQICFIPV

`C/C(O)=C(\C#N)C(=O)Nc1ccc(C(F)(F)F)cc1` [teriflunomide, (Z)-2-Cyano-3-hydroxy-but-2-enoic acid-(4trifluoromethylphenyl)-amide]: in series [1], the “DNA damage (gamma-H2AX) in PTEN-deficient versus WT cells” value was “augmented DNA damage to a significantly greater degree in PTEN-deficient cells”. In series [2], the “chromosome gaps, breaks, and multiradial formations” value is “greater number of chromosome gaps, breaks, and multiradial formations in MCCL-357 cells”. Further, the “sensitivity of Pten^−/− MEFs compared with WT MEFs” value in series [3] was “more sensitive”. Moreover, the “RPA and gamma-H2AX double-positive cells” value in series [4] (150 μM A771726, time course) was “shift toward both RPA and gamma-H2AX-positive cells in Pten^−/− MCCL-357 but not in Pten WT MCCL-278 cells”. Moreover, the RPA signal result in series [4] (150 μM A771726, regardless of PTEN genotype) is reported as “increase in RPA signal”. Besides, the “gamma-H2AX in relation to RPA staining” value in series [4] (MCCL-357 cells treated with A771726) is “appeared almost exclusively in RPA-positive MCCL-357 cells”. Besides, the “ATR phosphorylation of CHK1 at serine 345” value in series [5] is reported as “triggered ATR phosphorylation of CHK1 at serine 345 in Pten WT, but to a much lesser extent in Pten^−/− cells”. Besides, in series [6], the “increase in mean repaglinide AUC” value is recorded as 2.4 fold and the “increase in mean repaglinide Cmax” value is 1.7 fold.

The values above are taken from US20250302817A1, “METHODS FOR TREATING PTEN-MUTANT TUMORS” (Icahn School of Medicine at Mount Sinai, priority 2016, published 2025).
